Source: patent US20150306232A1, “HYDROGELATORS COMPRISING D-AMINO ACIDS” (BRANDEIS UNIVERSITY, priority 2012, published 2015)
Blank lines part the entries; values can stand above or below the molecule they belong to. Non-standard residues stand in square brackets, D forms with d. Residues, ends and D or L forms follow the SMILES beside them. *: point of attachment. Paclitaxel(2'-O-succinyl) = CC(=O)O[C@H]1C(=O)[C@@]2(C)[C@H]([C@H](OC(=O)c3ccccc3)[C@]3(O)C[C@H](OC(=O)[C@H](OC(=O)CCC(=O)*)[C@@H](NC(=O)c4ccccc4)c4ccccc4)C(C)=C1C3(C)C)[C@]1(OC(C)=O)CO[C@@H]1C[C@@H]2O; Naproxen = COc1ccc2cc([C@H](C)C(=O)*)ccc2c1; d(pY) = N[C@H](Cc1ccc(OP(=O)(O)O)cc1)C(=O)O; Acetyl(2-naphthyl) = O=C(Cc1ccc2ccccc2c1)*

What was measured:
HeLa cells = assay: cells; assay type: cell-based; conditions: 72 hours at 37° C., MTT; read-out: IC50, HeLa cell viability
Procedure: We seeded […] (cells/well) of health HeLa cells into 96-well plate with 100 μL of MEM medium supplemented with 10% fetal bovine serum (FBS), 100 U/mL penicillin and 100 mg mL21 streptomycin. The incubation at 37° C. and 5% CO2 for 12 hours allowed HeLa cells to attach the bottom of 96-well plate. Then we replaced the medium by another 100 μL of growth medium that contained serial diluents of our compounds (0.5% DMSO) and then incubated the cells at 37° C. and 5% CO2 for additional 72 hours. During the measurement of proliferation for HeLa cells, which were assayed into three days, we added 10 μL of (3-(4,5-Dimethylthiazol-2-yl)-2,5-diphenyltetrazolium bromide (MTT, 0.5 mg/mL) into the assigned wells in their corresponding day every 24 hours, which was followed by adding 100 μL of 0.1% sodium dodecyl sulfate (SDS) 4 hours later. Then we collected the assay results after another 24 hours incubation. Since the mitochondrial reductase in living cells reduced MTT to purple fomazan, the absorbance at 595 nm of the whole solution was finally measured by DTX 880 Multimode Detector. With MEM medium as blank and untreated HeLa cells as control, we measure each concentration of these compounds in triplicate. The IC50 values of our hydrogelators were read from their activity curves (with the measurement of 8 different concentrations) in day 3.

[1] = enzymatic hydrogelation with ALP; assay type: physicochemical; conditions: water, pH 7.4
Procedure: To investigate the enzymatic hydrogelation of the D-peptidic precursor 11b, we prepared a series of hydrogels formed by using ALP to treat 11b at different concentrations. After dissolving 1.0, 2.0, 3.0, 4.0, and 5.0 mg of 11b in 0.5 mL of water (pH 7.6), respectively, we obtained clear solutions of 11b with different concentrations. The treatment of the solutions of 11b with ALP (1.0 U/mL) afforded the molecules of hydrogelator 12b, which are less soluble than 11b and thus self-assemble in water to form hydrogels when the concentrations of 12b are sufficient.
All the compounds were dissolved in de-ionized water. We then adjusted pH of the solutions carefully adding 1 M of NaOH and 1 M of HCl and measured the values by pH paper (pH 6.0-8.0). After prepared clear weakly basic solutions (pH 7.6 or 7.4), we then formed the hydrogels by adding enzymes (alkaline phosphatase).

COX-1 = COX-1 (μM)
Excerpt: (§1) Table printed on a drawing sheet, Figure 7
Head of the field: COX-1 (μM)
(§2) First copying reader's note: The head cell at top left is split by a diagonal line (IC50 for the columns, Hydrogel for the rows); the footnote for the mark ^a is not printed on the sheet.
Where the first naming reader finds the target: head: COX-1 (μM)

COX-2 = COX-2 (Homo sapiens, UniProt P35354); assay: COX-2 (μM)
Excerpt: as §1
Head of the field: COX-2 (μM)
as §2
Where the first naming reader finds the target: head: COX-2 (μM)

[2] = toxicity and relative weight of treated mice; assay type: in vivo, Balb/c mice; conditions: hydrogel, single intratumoral injection, 14 days
COX-1 (ovine) enzyme = molecular target: T1, COX-1 (ovine) enzyme (Ovis aries, UniProt P05979); assay: COX Fluorescent Inhibitor Screening Assay, COX-1; assay type: biochemical; conditions: read-out: IC50 for inhibiting COX-1 enzyme
T1 construct: purchased Cayman Chemical 700100
T1 sequence (P05979 25-600): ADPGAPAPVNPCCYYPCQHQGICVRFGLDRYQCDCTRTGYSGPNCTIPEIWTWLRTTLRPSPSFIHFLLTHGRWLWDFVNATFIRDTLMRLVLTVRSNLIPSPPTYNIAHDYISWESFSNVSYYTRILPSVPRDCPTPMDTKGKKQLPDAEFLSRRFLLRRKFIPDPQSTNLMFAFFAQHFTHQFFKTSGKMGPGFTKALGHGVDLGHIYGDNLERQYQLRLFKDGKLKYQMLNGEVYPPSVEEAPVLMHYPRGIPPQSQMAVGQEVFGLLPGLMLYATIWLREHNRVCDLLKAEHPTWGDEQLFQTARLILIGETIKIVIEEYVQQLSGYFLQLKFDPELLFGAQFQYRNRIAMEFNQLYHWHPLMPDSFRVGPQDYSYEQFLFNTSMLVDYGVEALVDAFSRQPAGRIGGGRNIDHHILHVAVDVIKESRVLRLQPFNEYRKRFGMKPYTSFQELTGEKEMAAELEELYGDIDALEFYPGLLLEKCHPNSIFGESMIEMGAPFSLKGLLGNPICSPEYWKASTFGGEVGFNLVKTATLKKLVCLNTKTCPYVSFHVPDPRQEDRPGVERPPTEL
Procedure: To study the drug efficacies of NSAID containing hydrogelators, here we used ‘COX Fluorescent Inhibitor Screening Assay Kit’ (700100; Cayman Chemical) to do in vitro inhibition assays for Npx and Npx containing hydrogelors 1, 2, 3, 4, 5, and 6. Each compound was tested by COX-1 (ovine) enzyme and COX-2 (human recombinant) enzyme separately in 96 well black assay plates. By utilizing the peroxidase component of COXs, we monitored the reaction between PGG2 and ADHP (10-acetyl-3,7-dihydroxyphenoxazine), which produced highly fluorescent compound resorufin. This resorufin can be easily analyzed by multimode detector with an excitation wavelength of 530-540 nm and an emission wavelength of 585-595 nm. All the compounds are assayed in triplicate. After the combination of 10 μl of inhibitors, 10 μl of Heme solution, 10 μL of fluorometric substrate, 10 μl of enzyme (either COX-1 or COX-2), and 150 μl of assay buffer, we quickly add 10 μl of arachidonic acid solution to initiate the reaction. Then we read the plate exactly after two minutes incubation at room temperature. In this experiment, we also measure the blank data without enzyme and inhibitors, and the control data without inhibitors. The IC50 values of these hydrogelators were read from their activity curves (FIG. 18), which were measured with 5 different concentrations of these hydrogelators (dissolved in DMSO).

[3] = rheological measurement of Npx containing hydrogels; assay type: physicochemical; conditions: hydrogel 0.8 wt %; for storage modulus G′: 6.28 rad/s
Procedure: Rheological tests were conducted on TA ARES G2 rheometer with TA Orchestrator Software. 25 mm cone-plate was used during the experiment. 0.2 mL of hydrogel sample was placed on the cone-plate.
The measurement performs at the frequency of 6.28 rad/s (0.1 to 10% strain, frequency=10 rads^−1, 10 points per decade). Sweep mode is “log” and temperature was carried out at 25° C. The critical strain (γc) value was determined from the storage-strain profiles of the hydrogel sample. The strain applied to the hydrogel sample increased from 0.1 to 100% (10 rad/s and 25° C.). Over a certain strain, a drop in the elastic modulus was observed, and the strain amplitude at which storage moduli just begins to decrease by 5% from its maximum value was determined and taken as a measure of the critical strain of the hydrogels, which correspond to the breakdown of the cross-linked network in the hydrogel sample.
The frequency ranges from 200 rad/s to 0.1 rad/s, depending on the viscoelastic properties of each sample. A suitable strain was used to ensure the linearity of dynamic viscoelasticity.

[4] = in vitro release of hydrogelators from hydrogels; assay type: physicochemical; conditions: 0.8 wt % hydrogel, PBS pH 7.4, 37° C., after 24 hours
Procedure: After studying their drug efficacies, the sustained release of Npx-containing hydrogelators from 0.8 wt % of hydrogels was studied. We incubated 100 μL of hydrogels at 37° C. for 24 hours with 100 μL of PBS buffer solution (pH 7.4), which is refreshed and monitored at 1 h, 2 h, 4 h, 8 h, 12 h, and 24 h. […] After 24 hours, hydrogel 1 slowly and steadily released 6.5% of the hydrogelator. […] Hydrogels 5 and 6 release 35.8% and 31.7% of hydrogelators after 24 h.
To illustrate the in vitro release profile of hydrogelators, we prepared 100 μL of the hydrogels formed by 1 (0.8 wt %, pH 4.0), 2 (0.8 wt %, pH 7.6), 3 (0.8 wt %, pH 7.6), 4 (0.8 wt %, pH 7.6), 5 (0.8 wt %, pH 7.0), and 6 (0.8 wt %, pH 7.0). With the addition of PBS buffer (100 μL, pH 7.4) onto the surface of hydrogels, the gels were incubated at 37° C. for 24 hours. The release solutions (100 μL) were taken and refreshed at […], 2 h, 4 h, 8 h, 12 h, and 24 h, which were detected by analytical HPLC at 276 nm for the quantities of released Npx containing hydrogelators 1, 2, 3, 4, 5, and 6.

Chain of COX-2 (P35354 18-604 limits assumed): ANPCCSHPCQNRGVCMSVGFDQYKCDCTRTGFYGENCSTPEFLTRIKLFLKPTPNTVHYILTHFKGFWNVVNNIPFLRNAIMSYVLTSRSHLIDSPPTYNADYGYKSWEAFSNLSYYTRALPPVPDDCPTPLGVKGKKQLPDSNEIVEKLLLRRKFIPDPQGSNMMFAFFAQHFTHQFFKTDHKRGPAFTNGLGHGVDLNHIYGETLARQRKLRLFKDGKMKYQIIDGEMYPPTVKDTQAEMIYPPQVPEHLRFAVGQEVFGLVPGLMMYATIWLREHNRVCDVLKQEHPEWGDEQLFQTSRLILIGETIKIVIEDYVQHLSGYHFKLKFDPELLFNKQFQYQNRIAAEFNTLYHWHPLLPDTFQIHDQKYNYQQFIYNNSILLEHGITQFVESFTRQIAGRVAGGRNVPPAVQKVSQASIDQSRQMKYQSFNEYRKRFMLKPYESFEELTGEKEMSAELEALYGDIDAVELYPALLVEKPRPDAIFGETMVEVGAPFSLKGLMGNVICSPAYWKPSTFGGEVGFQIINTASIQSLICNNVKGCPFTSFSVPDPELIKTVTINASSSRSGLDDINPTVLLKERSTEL

SMILES: CC(=O)O[C@H]1C(=O)[C@@]2(C)[C@H]([C@H](OC(=O)c3ccccc3)[C@]3(O)C[C@H](OC(=O)[C@H](OC(=O)CCC(=O)NCCCC[C@@H](NC(=O)[C@@H](Cc4ccccc4)NC(=O)[C@@H](Cc4ccccc4)NC(=O)Cc4ccc5ccccc5c4)C(=O)N[C@H](Cc4ccc(OP(=O)(O)O)cc4)C(=O)O)[C@@H](NC(=O)c4ccccc4)c4ccccc4)C(C)=C1C3(C)C)[C@]1(OC(C)=O)CO[C@@H]1C[C@@H]2O [19b, 2-(Naphthalen-2-yl)acetyl-(D)-Phe-(D)-Phe-(D)-Lys(Taxol)-(D)-Tyr phosphate] ({Acetyl(2-naphthyl)}-[dF][dF][dK](Paclitaxel(2'-O-succinyl))[d(pY)]-OH)
IC50 (HeLa cells): 0.0619 µM
solubility [1]: relatively good solubility

SMILES: CC(=O)O[C@H]1C(=O)[C@@]2(C)[C@H]([C@H](OC(=O)c3ccccc3)[C@]3(O)C[C@H](OC(=O)[C@H](OC(=O)CCC(=O)NCCCC[C@@H](NC(=O)[C@@H](Cc4ccccc4)NC(=O)[C@@H](Cc4ccccc4)NC(=O)Cc4ccc5ccccc5c4)C(=O)N[C@H](Cc4ccc(O)cc4)C(=O)O)[C@@H](NC(=O)c4ccccc4)c4ccccc4)C(C)=C1C3(C)C)[C@]1(OC(C)=O)CO[C@@H]1C[C@@H]2O [20b] ({Acetyl(2-naphthyl)}-[dF][dF][dK](Paclitaxel(2'-O-succinyl))[dY]-OH)
side effect from relative weights of mice [2]: limit the side effect of Taxol to the mice
IC50 (HeLa cells): 0.106 µM
solubility [1]: relatively good solubility

SMILES: COc1ccc2cc([C@H](C)C(=O)NCCCC[C@@H](NC(=O)[C@@H](Cc3ccccc3)NC(=O)[C@H](N)Cc3ccccc3)C(=O)O)ccc2c1 [compound 5, D-Phe-D-Phe-D-Lys(naproxen)]
IC50 (COX-1 (ovine) enzyme): 476 µM

SMILES: COc1ccc2cc([C@H](C)C(=O)N[C@H](Cc3ccccc3)C(=O)N[C@H](Cc3ccccc3)C(=O)N[C@H](CCCCN)C(=O)N[C@H](Cc3ccc(O)cc3)C(=O)O)ccc2c1 [compound 4, Npx-ffky] (Naproxen-[dF][dF][dK][dY]-OH)
critical strain [3]: 5.5%
storage modulus G′ [3]: 1.5×10^2 Pa
hydrogelator released from hydrogel [4]: 19.8%

SMILES: COc1ccc2cc([C@H](C)C(=O)N[C@H](Cc3ccccc3)C(=O)N[C@H](Cc3ccccc3)C(=O)O)ccc2c1 [compound 1, Naproxen-D-Phe-D-Phe]
critical strain [3]: 1.0%
storage modulus G′ [3]: 5.3×10^4 Pa
hydrogelator released from hydrogel [4]: 6.5%
IC50 (COX-1 (ovine) enzyme): 854 µM

SMILES: COc1ccc2cc([C@H](C)C(=O)NCCCC[C@@H](NC(=O)[C@@H](Cc3ccccc3)NC(=O)[C@H](N)Cc3ccccc3)C(=O)N[C@H](Cc3ccc(O)cc3)C(=O)O)ccc2c1 [compound 6, D-Phe-D-Phe-D-Lys(naproxen)-D-Tyr] (H-[dF][dF][dK](Naproxen)[dY]-OH)
IC50 (COX-1 (ovine) enzyme): 367 µM

Next, values leading:

IC50 (COX-1): 294 µM
IC50 (COX-2): 144 µM
SMILES: COc1ccc2cc([C@H](C)C(=O)N[C@@H](Cc3ccccc3)C(=O)N[C@@H](Cc3ccccc3)C(=O)N[C@@H](Cc3ccc(O)cc3)C(=O)O)ccc2c1 [L-2, Naproxen-L-Phe-L-Phe-L-Tyr]

IC50 (COX-1): 986 µM
IC50 (COX-2): 715 µM
SMILES: COc1ccc2cc([C@H](C)C(=O)N[C@@H](Cc3ccccc3)C(=O)N[C@@H](Cc3ccccc3)C(=O)O)ccc2c1 [L-1, Naproxen-L-Phe-L-Phe]
